Source: publication PMC7575488, “Phase 1 dose-escalation study of a novel oral PI3K/mTOR dual inhibitor, LY3023414, in patients with cancer” (Investigational New Drugs, 2020)

Assays:
[1] = tested on: PI3K/mTOR kinase activity; test: Pharmacodynamics: fasting glucose and C-peptide change from baseline; type: in vivo, human; settings: baseline to 4 h post dose
Method: The primary objective of this study was to evaluate the tolerability and safety of LY3023414 up to the global recommended dose in Japanese patients with advanced malignancies. The secondary objectives were to evaluate PK and to document antitumor activity of LY3023414. The exploratory objective was to evaluate pharmacodynamic (PD) effects of LY3023414 on PI3K/mTOR kinase activity.
For PK assessment, blood samples were collected at pre dose and 0.5, 1, 2, 4, 8, and 12 h post dose on 2 occasions: (i) on Day 1 of Cycle 1 (single dose), and (ii) on Day 15 of Cycle 1 (multiple dose). For PD assessment, blood samples were collected at pre dose and 0.5, 1, 2, and 4 h post dose on 2 occasions: (i) on Day 1 of Cycle 1 (single dose), and (ii) on Day 15 of Cycle 1 (multiple dose).
Pharmacodynamic parameters (glucose and C-peptide) were analyzed for all patients. The mean percentage change from baseline against nominal time was provided for glucose and C-peptide.

[2] = Phase 1 dose-escalation: tolerability and safety (DLTs, adverse events, CTCAE v4.0); type: in vivo
Method: This was a non-randomized, single-arm, open-label, Phase 1, dose-escalation study of oral LY3023414 in Japanese patients with advanced malignancies. A modified 3 + 3 dose-escalation method was used to evaluate the dose-limiting toxicity (DLT) of LY3023414. Enrollment of 3 patients and 6 patients were planned for dose level 1 (150 mg) and dose level 2 (200 mg), respectively. Dose-escalation decisions were made by agreement between investigators and the sponsor, with a consultation with the Safety Assessment Committee (SAC), as needed. If 2 patients experienced DLTs at any given dose, the sponsor examined safety data and consulted the SAC. Following consultation, the sponsor and investigators decided whether the dose was intolerable or additional patients were to be enrolled to the same or an intermediate dose level for further investigation. If ≥3 patients experienced DLTs at any given dose, the dose was considered intolerable for Japanese patients. No intrapatient dose escalation was allowed.
The study evaluated 2 dose levels, 150 mg or 200 mg LY3023414 monotherapy administered in the morning and evening, approximately 12 h apart. The cycle was of 21 days. […] No dose reductions were allowed during Cycle 1, unless a DLT was reported. Dose reductions were allowed in Cycle 2 and beyond at the discretion of the investigator. Patients were treated until a discontinuation criterion was met.
Tolerability and safety were assessed through clinical and laboratory evaluations at weekly intervals for the first 2 cycles and at least every 2 weeks thereafter. Adverse events (AEs) were graded according to the Common Terminology Criteria for Adverse Events Version 4.0 and coded to Medical Dictionary for Regulatory Activities preferred terms. All patients who received ≥1 dose of the study drug were included in the safety analysis.
A DLT was defined as any AE during Cycle 1 which was possibly related to study treatment with LY3023414 and fulfilled any of the following main criteria: Grade ≥ 3 non-hematological toxicity (except nausea, vomiting, diarrhea, constipation, anorexia, skin rash, or asymptomatic electrolyte abnormality for ≤3 days and responsive to appropriate treatment; transient ≤5 days hyperglycemia; and transient ≤7 days mucositis), Grade 4 hematological toxicity of ≥7 days, Grade 3 thrombocytopenia with Grade ≥ 2 bleeding or febrile neutropenia, requirement of platelet or packed red blood transfusion, and any toxicities requiring dose omissions of >20% of intended doses in Cycle 1. The maximum tolerated dose was defined as the highest dose of LY3023414 not causing a DLT in more than 33% of patients.

[3] = cited from earlier work
advanced malignancies = test: Antitumor activity, tumor response by RECIST v1.1; type: in vivo, human
Method: Tumor response was assessed by computed tomography scans or magnetic resonance imaging according to RECIST v1.1 [18] at baseline and thereafter every 6 weeks until patients discontinued from the study. The assessment included all patients who received ≥1 dose of study drug.

[4] = tested on: PI3K/AKT/mTOR downstream pathway; design: method as in PMID 27439478; settings: in vitro; cited from earlier work

Compound: CO[C@@H](C)Cn1c(=O)n(C)c2cnc3ccc(-c4cncc(C(C)(C)O)c4)cc3c21 [LY3023414]
- C-peptide, mean percentage change from baseline ([1]; 150 mg): 106.0%
- Glucose, mean percentage change from baseline ([1]; 150 mg): 23.6%
- C-peptide, mean percentage change from baseline ([1]; 200 mg): 165.4%
- Glucose, mean percentage change from baseline ([1]; 200 mg): 24.7%
- Maximum tolerated dose ([2]; BID dosing, Japanese patients): 200 mg
- Fatal events ([2]; due to AEs or any other reason): no fatal events
- ALT increased, AE possibly related to study drug ([2]; human, in vivo): 3 (25.0) n (%)
- AST increased, AE possibly related to study drug ([2]; human, in vivo): 3 (25.0) n (%)
- Anemia, AE possibly related to study drug ([2]; human, in vivo): 5 (41.7) n (%)
- Appetite decreased, AE possibly related to study drug ([2]; human, in vivo): 7 (58.3) n (%)
- Blood creatinine increased, AE possibly related to study drug ([2]; human, in vivo): 4 (33.3) n (%)
- Diarrhea, AE possibly related to study drug ([2]; human, in vivo): 5 (41.7) n (%)
- Drug-related Grade 4 or 5 AEs ([2]; human, in vivo): No drug-related Grade 4 or 5 AEs
- Fatigue, AE possibly related to study drug ([2]; human, in vivo): 4 (33.3) n (%)
- Hyperglycemia, AE possibly related to study drug ([2]; human, in vivo): 4 (33.3) n (%)
- Hypokalemia, AE possibly related to study drug ([2]; human, in vivo): 2 (16.7) n (%)
- Hypophosphatemia, AE possibly related to study drug ([2]; human, in vivo): 4 (33.3) n (%)
- Hypotension, AE possibly related to study drug ([2]; human, in vivo): 2 (16.7) n (%)
- Nausea, AE possibly related to study drug ([2]; human, in vivo): 8 (66.7) n (%)
- Patients with at least 1 dose adjustment ([2]; human, in vivo): 33.3%
- Patients with serious AEs ([2]; human, in vivo): 3 patients
- Platelet count decreased, hematological AE possibly related to study drug ([2]; human, in vivo): 5 (41.7) n (%)
- Proteinuria, AE possibly related to study drug ([2]; human, in vivo): 4 (33.3) n (%)
- Pruritis, AE possibly related to study drug ([2]; human, in vivo): 3 (25.0) n (%)
- Pyrexia, AE possibly related to study drug ([2]; human, in vivo): 2 (16.7) n (%)
- Rash, AE possibly related to study drug ([2]; human, in vivo): 3 (25.0) n (%)
- Stomatitis, AE possibly related to study drug ([2]; human, in vivo): 9 (75.0) n (%)
- Vomiting, AE possibly related to study drug ([2]; human, in vivo): 4 (33.3) n (%)
- WBC count decreased, hematological AE possibly related to study drug ([2]; human, in vivo): 2 (16.7) n (%)
- Weight decreased, AE possibly related to study drug ([2]; human, in vivo): 2 (16.7) n (%)
- anemia, related AE Grade ≥ 3, patients ([2]; human, in vivo): 16.7%
- anemia, treatment-related AE, patients ([2]; human, in vivo): 41.7%
- decreased appetite, treatment-related AE, patients ([2]; human, in vivo): 58.3%
- decreased platelet count, treatment-related AE, patients ([2]; human, in vivo): 41.7%
- decreased weight, treatment-related AE, patients ([2]; human, in vivo): 16.7%
- decreased white blood cell count, treatment-related AE, patients ([2]; human, in vivo): 16.7%
- diarrhea, treatment-related AE, patients ([2]; human, in vivo): 41.7%
- fatigue, treatment-related AE, patients ([2]; human, in vivo): 33.3%
- hyperglycemia, related AE Grade ≥ 3, patients ([2]; human, in vivo): 16.7%
- hyperglycemia, treatment-related AE, patients ([2]; human, in vivo): 33.3%
- hypokalemia, treatment-related AE, patients ([2]; human, in vivo): 16.7%
- hypophosphatemia, related AE Grade ≥ 3, patients ([2]; human, in vivo): 16.7%
- hypophosphatemia, treatment-related AE, patients ([2]; human, in vivo): 33.3%
- hypotension, treatment-related AE, patients ([2]; human, in vivo): 16.7%
- increased alanine aminotransferase, treatment-related AE, patients ([2]; human, in vivo): 25.0%
- increased aspartate aminotransferase, treatment-related AE, patients ([2]; human, in vivo): 25.0%
- increased blood creatinine, treatment-related AE, patients ([2]; human, in vivo): 33.3%
- nausea, treatment-related AE, patients ([2]; human, in vivo): 66.7%
- proteinuria, treatment-related AE, patients ([2]; human, in vivo): 33.3%
- pruritus, treatment-related AE, patients ([2]; human, in vivo): 25.0%
- pyrexia, treatment-related AE, patients ([2]; human, in vivo): 16.7%
- rash, treatment-related AE, patients ([2]; human, in vivo): 25.0%
- stomatitis, related AE Grade ≥ 3, patients ([2]; human, in vivo): 16.7%
- stomatitis, treatment-related AE, patients ([2]; human, in vivo): 75.0%
- vomiting, treatment-related AE, patients ([2]; human, in vivo): 33.3%
- Dose-limiting toxicities (DLTs) ([2]; in vivo): No DLTs
- Patients with at least 1 AE considered possibly related to the study drug ([2]; in vivo): All patients
- Frequency of stomatitis ([3]; 200-mg dose, global study): 33.3%
- Disease control rate ([3]; global Phase 1 study): 34.0%
- Interstitial lung disease (ILD) ([3]; global study): None of the patients experienced ILD
- Safe and tolerable dose as monotherapy (global recommended dose) ([3]; human, in vivo): up to 200 mg
- Best overall response of stable disease (advanced malignancies; 150 mg): 3 patients
- Best overall response of stable disease (advanced malignancies; 200 mg): 2 patients
- Progressive disease as best response (advanced malignancies; 200 mg BID): 4 patients
- Disease control rate (advanced malignancies; 5 of 9 evaluable patients): 55.6%
- Complete response (CR) or partial response (PR) (advanced malignancies; 9 evaluable patients, RECIST v1.1): No complete response (CR) or partial response (PR)
- Best overall response of stable disease (advanced malignancies; both dose levels, 9 evaluable patients): 5 patients
- Inhibition of phosphorylation of the PI3K/AKT/mTOR downstream pathway [4]: dose-dependent inhibition
